US20240350447A1, “DELIVERY METHODS FOR TREATING BRAIN AND CENTRAL NERVOUS SYSTEM DISEASES” (JENIVISION INC., priority 2021, published 2024)
“And” between values parts separate entries of the source, which are not always exact repeats. Equal values may be shown once. Read-outs that look alike come from different tables or passages of the source.

Experiments:
[1] = Biodistribution of DHA after periorbital skin (NIODP) application to one eye; format: in vivo, Cynomolgus monkeys; conditions: undosed/dosed retina, 6755.1 μg to OS via NIODP
Protocol: An experiment was performed to determine the biodisposition of DHA following topical application to the periorbital skin that surrounds the anterior portion of the globe was performed.
Docosahexaenoic acid (DHA) is an omega-3 fatty acid and an essential component for neuronal formation, function and protection. […] […] High concentrations of DHA (from 35.6 to 97.3 μg/g) were detected in the undoes retina, which is similar to the dosed retina.
Moreover, compared to the baseline retina/plasma ratio of 7-fold, and with no significant changes in plasma, the retina/plasma ratios of DHA in the undosed eye were at least 30-fold at each post dose timepoint, signifying that the undosed retina uptake of DHA was not from blood circulation.

[2] = DHA distribution after single periorbital skin administration; format: in vivo, Bama minipigs; conditions: for concentration at 3 h: Bama, minipig, topical, 6092 μg/eye
Protocol: In this example, 6092 μg/eye of DHA was applied to the periorbital skin of a left eye of a Bama minipig. […] 27133.8 ng/g of tissue and 24795.8 ng/g of tissue of DHA was measured in the left and right halves of the brain, respectively. Taking the average of these two numbers, the amount of DHA present in the brain 3 hours post-dosage was 25964.9 ng/g.
Given that the average Bama pig brain weighs around 60 g, the amount of DHA delivered to the brain can be estimated to be 312,408 ng or 312 μg. Therefore, the percentage of administered dose=312 μg delivered to brain/6092 μg dosed=5.1% of DHA topically administered to the pig via periorbital administration was delivered to the brain. As a comparison, only about 0.025% of DHA that is orally administered is delivered to the brain or CNS.

[3] = oral administration; comparison value; cited from earlier work
[4] = Baseline endogenous levels of DHA, DHA-EE and JV-DE1; format: in vivo; conditions: undosed Bama minipigs
Protocol: Endogenous levels were measured in the plasma, cerebrospinal fluid, ocular tissues (retina, optic nerve, ocular muscles), and brain. The endogenous levels DHA are not attributable to NIODP administration of DHA, DHA-EE, or JV-DE1. The baseline data collected in Table 4 was taken from the same lot of pigs, from the same vendor, as the information collected in Tables 5-7.

[5] = Baseline endogenous levels of DHA in monkeys; format: in vivo; conditions: no NIODP dosing
From the text: The endogenous levels DHA is originated from normal diet and not attributable to NIODP administration.

[6] = 3 h, DHA 6092 μg to periorbital skin of left eye

CC/C=C\C/C=C\C/C=C\C/C=C\C/C=C\C/C=C\CCC(=O)O [DHA, docosahexaenoic acid]
OD/OS retina ratio of DHA ([1]; 6 h): 99% | OD/OS retina ratio of DHA ([1]; 24 h): 75% | Drug Concentration in Plasma ([2]; 0 h, DHA 6092 μg to periorbital skin of left eye): BLQ | Drug Concentration in Plasma ([2]; 1 h, DHA 6092 μg to periorbital skin of left eye): BLQ | Percentage of administered dose delivered to the brain ([2]; 3 h, DHA 6092 μg periorbital, whole brain estimate): 5.1% | % of administered dose: Cerebrospinal fluid [2, 6]: 0% | % of administered dose: brain-left [2, 6]: 6% | % of administered dose: brain-right [2, 6]: 4% | % of administered dose: inferior rectus muscle-left [2, 6]: 0.004% | % of administered dose: inferior rectus muscle-right [2, 6]: 0.01% | % of administered dose: lateral rectus muscle-left [2, 6]: 0.02% | % of administered dose: lateral rectus muscle-right [2, 6]: 0.03% | % of administered dose: medial rectus muscle-left [2, 6]: 0.01% | % of administered dose: medial rectus muscle-right [2, 6]: 0.01% | % of administered dose: optic nerve-left [2, 6]: 0.03% | % of administered dose: optic nerve-right [2, 6]: 0.05% | % of administered dose: retina-left [2, 6]: 0.2% | % of administered dose: retina-right [2, 6]: 0.1% | % of administered dose: superior rectus muscle-left [2, 6]: 0.01% | % of administered dose: superior rectus muscle-right [2, 6]: 0% | Drug Concentration in Plasma [2, 6]: BLQ | concentration at 3 h ([2]; brain (average of left and right halves), 3 h, DHA 6092 μg to periorbital skin of left eye, read-out: Average DHA present in the brain (left and right halves)): 26000 ng/g | concentration at 3 h ([2]; brain, left half, 3 h, DHA 6092 μg to periorbital skin of left eye, read-out: Drug Concentration in Tissue: brain-left): 27100 ng/g | concentration at 3 h ([2]; brain, right half, 3 h, DHA 6092 μg to periorbital skin of left eye, read-out: Drug Concentration in Tissue: brain-right): 24800 ng/g | concentration at 3 h ([2]; cerebrospinal fluid, 3 h, DHA 6092 μg to periorbital skin of left eye, read-out: Drug Concentration in Tissue: Cerebrospinal fluid): 0 ng/g | concentration at 3 h ([2]; inferior rectus muscle, left (dosed side), 3 h, DHA 6092 μg to periorbital skin of left eye, read-out: Drug Concentration in Tissue: inferior rectus muscle-left): 2750 ng/g | concentration at 3 h ([2]; inferior rectus muscle, right (undosed side), 3 h, DHA 6092 μg to periorbital skin of left eye, read-out: Drug Concentration in Tissue: inferior rectus muscle-right): 2340 ng/g | concentration at 3 h ([2]; lateral rectus muscle, right, 3 h, DHA 6092 μg to periorbital skin of left eye, read-out: Drug Concentration in Tissue: lateral rectus muscle-right): 1980 ng/g | concentration at 3 h ([2]; lateral rectus muscle, 3 h, DHA 6092 μg to periorbital skin of left eye, read-out: Drug Concentration in Tissue: lateral rectus muscle-left): 8100 ng/g | concentration at 3 h ([2]; medial rectus muscle, left (dosed side), 3 h, DHA 6092 μg to periorbital skin of left eye, read-out: Drug Concentration in Tissue: medial rectus muscle-left): 2720 ng/g | concentration at 3 h ([2]; medial rectus muscle, right, 3 h, DHA 6092 μg to periorbital skin of left eye, read-out: Drug Concentration in Tissue: medial rectus muscle-right): 1520 ng/g | concentration at 3 h ([2]; optic nerve, left (dosed side), 3 h, DHA 6092 μg to periorbital skin of left eye, read-out: Drug Concentration in Tissue: optic nerve-left): 10400 ng/g | concentration at 3 h ([2]; optic nerve, right (undosed side), 3 h, DHA 6092 μg to periorbital skin of left eye, read-out: Drug Concentration in Tissue: optic nerve-right): 15300 ng/g | concentration at 3 h ([2]; retina, left (dosed side), 3 h, DHA 6092 μg to periorbital skin of left eye, read-out: Drug Concentration in Tissue: retina-left): 61700 ng/g | concentration at 3 h ([2]; retina, right (undosed side), 3 h, DHA 6092 μg to periorbital skin of left eye, read-out: Drug Concentration in Tissue: retina-right): 42100 ng/g | concentration at 3 h ([2]; superior rectus muscle, right, 3 h, DHA 6092 μg to periorbital skin of left eye, read-out: Drug Concentration in Tissue: superior rectus muscle-right): 0 ng/g | concentration at 3 h ([2]; superior rectus muscle, 3 h, DHA 6092 μg to periorbital skin of left eye, read-out: Drug Concentration in Tissue: superior rectus muscle-left): 3050 ng/g | Share of orally administered DHA delivered to the brain or CNS [3]: about 0.025% | Baseline endogenous concentration in brain [4]: 20758 ng/g | Baseline endogenous concentration in cerebrospinal fluid [4]: BLQ | Baseline endogenous concentration in eye tissue homogenate including (Retina, optic nerve, ocular muscle) [4]: 2643.5 ng/g | Baseline endogenous concentration in plasma [4]: 122.1 ng/mL | Calculated Concentration, endogenous DHA in cornea ([5]; double blank samples): BLQ | Calculated Concentration, endogenous DHA in plasma ([5]; double blank samples): 0.5 µg/mL and 0.6 µg/mL | Calculated Concentration, endogenous DHA in retina ([5]; double blank samples): 16 µg/g and 17 µg/g | Calculated Concentration, endogenous DHA in upper eyelid ([5]; double blank samples): BLQ | Calculated Concentration, endogenous DHA in vitreous humor ([5]; double blank samples): BLQ | Endogenous levels of DHA in monkey ocular tissues ([5]; LLOQ=0.5 μg/mL): mostly below the lower limit of quantification (LLOQ=0.5 μg/mL) or negligible
